Reference: patent publication US20250255867A1 (Kadmon Corporation, LLC, priority 2022, published 2025)

Assay: Example 3: respiratory infections and overall survival
Format: in vivo
Source text: The median age at enrollment was 42.5 years (range, 26-77). Allogeneic HCT was predominantly performed with myeloablative conditioning (n=44, 75%) and peripheral blood stem cells (n=54, 92%) from an HLA-matched donor (n=53, 90%). The median time from cGVHD diagnosis to enrollment was 22 months (range, 1-161). […] Most subjects (n=39, 66%) had at least 4 organs involved at enrollment. The median number of prior lines of systemic therapy was 3 (range, 1-6). Overall cGVHD response to the line of systemic therapy prior to enrollment was partial response (n=12, 20%), stable disease (n=25, 42%), progressive disease (n=12, 20%) or unknown (n=10, 17%). […] At the time of analysis, 16 subjects remained on therapy. […] Thirty-one subjects (53%) experienced at least 1 respiratory infection (any grade) while on treatment, with 11 subjects experiencing 32 episodes. These infections were categorized as upper respiratory infections (n=33) or pneumonia (n=13). […] With a median follow-up among survivors of 27 months (range, 1.8-55), the 2-year overall survival is 82% (95% CI: 70, 90).

CC(C)NC(=O)COc1cccc(-c2nc(Nc3ccc4[nH]ncc4c3)c3ccccc3n2)c1 [Belumosudil, 2-{3-[4-(1H-indazol-5-ylamino)-2-quinazolinyl]phenoxy}-N-(propan-2-yl) acetamide]
Subjects with at least 1 respiratory infection (any grade) on treatment (59 BOS subjects): 53% | 2-year overall survival (95% CI: 70, 90): 82%
